Data: article PMC5775428, “Towards an experimental classification system for membrane active peptides” (Scientific Reports, 2018)
Like-named read-outs stand apart in the source and are kept apart here.

How the values were obtained:
Candida albicans = conditions: Candida albicans; for Minimum inhibitory concentration, Average: average of triplicates
In short: (§1)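 MICs determined per CLSI M7-A10 (bacteria) and M27-A3 (yeasts) protocols, peptides tested at 0.5 to 256 μM. MIC taken as the lowest concentration with no cells seen by optical microscopy; three biological repeats with 2 technical replicates each.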

Erwinia carotovora = conditions: Erwinia carotovora; for Minimum inhibitory concentration, Average: average of triplicates
In short: (§2)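 Broth microdilution MICs followed CLSI M7-A10 for bacteria, with peptides tested at 0.5 to 256 μM. MIC was the lowest concentration at which no cells were seen by optical microscopy. Three biological repeats, each with two technical replicates.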

[1] = system: Pseudomonas syringae pv. tabaci; conditions: Pseudomonas syringae pv. tabaci; for Minimum inhibitory concentration, Average: average of triplicates
In short: as §2

Bacillus subtilis = conditions: Bacillus subtilis; for Minimum inhibitory concentration, Average: average of triplicates
In short: as §2

Bacillus cereus = conditions: Bacillus cereus; for Minimum inhibitory concentration, Average: average of triplicates
In short: as §2

Pseudomonas aeruginosa = conditions: Pseudomonas aeruginosa; for Minimum inhibitory concentration, Average: average of triplicates
In short: as §2

Staphylococcus aureus = conditions: Staphylococcus aureus; for Minimum inhibitory concentration, Average: average of triplicates
In short: as §2

Xanthomonas campestris = conditions: for Minimum inhibitory concentration, Average: average of triplicates
In short: as §2

Cryptococcus neoformans = conditions: Cryptococcus neoformans; for Minimum inhibitory concentration, Average: average of triplicates
In short: as §1

Escherichia coli = conditions: Escherichia coli; for Minimum inhibitory concentration, Average: average of triplicates
In short: as §2

[2] = CLSI M27-A3, 0.5 to 256 μM tested, triplicate 1, also published in ref 7

| Sequence | Minimum inhibitory concentration (Candida albicans; [2]) [µM] | Minimum inhibitory concentration, Average (Candida albicans) [µM] | Minimum inhibitory concentration (Candida albicans; triplicate 2) [µM] | Minimum inhibitory concentration (Candida albicans; triplicate 3) [µM] | Minimum inhibitory concentration (Erwinia carotovora; CLSI M7-A10, triplicate 1) [µM] | Minimum inhibitory concentration, Average (Erwinia carotovora) [µM] | Minimum inhibitory concentration (Erwinia carotovora; triplicate 2) [µM] | Minimum inhibitory concentration (Erwinia carotovora; triplicate 3) [µM] | Minimum inhibitory concentration ([1]; CLSI M7-A10, triplicate 1) [µM] | Minimum inhibitory concentration, Average [1] [µM] | Minimum inhibitory concentration ([1]; triplicate 2) [µM] | Minimum inhibitory concentration ([1]; triplicate 3) [µM] | Minimum inhibitory concentration (Bacillus subtilis; CLSI M7-A10, triplicate 1) [µM] | Minimum inhibitory concentration, Average (Bacillus subtilis) [µM] | Minimum inhibitory concentration (Bacillus subtilis; triplicate 2) [µM] | Minimum inhibitory concentration (Bacillus subtilis; triplicate 3) [µM] | Minimum inhibitory concentration (Bacillus cereus; CLSI M7-A10, triplicate 1) [µM] | Minimum inhibitory concentration, Average (Bacillus cereus) [µM] | Minimum inhibitory concentration (Bacillus cereus; triplicate 2) [µM] | Minimum inhibitory concentration (Bacillus cereus; triplicate 3) [µM] | other results |
| --- | --- | --- | --- | --- | --- | --- | --- | --- | --- | --- | --- | --- | --- | --- | --- | --- | --- | --- | --- | --- | --- |
| LHRLVKLVAALLRGYASKVDTH [Tc08] | 4 | 4.0 | 4 | 4 | 2 | 3.3 | 4 | 4 | 4 | 4.0 | 4 | 4 | 2 | 2.0 | 2 | 2 | 4 | 6.7 | 8 | 8 | Minimum inhibitory concentration (Pseudomonas aeruginosa; CLSI M7-A10, triplicate 1): 4 µM; Minimum inhibitory concentration, Average (Pseudomonas aeruginosa): 4.0 µM; Minimum inhibitory concentration (Pseudomonas aeruginosa; triplicate 2): 4 µM; Minimum inhibitory concentration (Pseudomonas aeruginosa; triplicate 3): 4 µM; Minimum inhibitory concentration (Staphylococcus aureus; CLSI M7-A10, triplicate 1): 2 µM; Minimum inhibitory concentration, Average (Staphylococcus aureus): 2.0 µM; Minimum inhibitory concentration (Staphylococcus aureus; triplicate 2): 2 µM; Minimum inhibitory concentration (Staphylococcus aureus; triplicate 3): 2 µM; Minimum inhibitory concentration (Xanthomonas campestris; CLSI M7-A10, triplicate 1): 4 µM; Minimum inhibitory concentration, Average (Xanthomonas campestris): 4.0 µM; Minimum inhibitory concentration (Xanthomonas campestris; triplicate 2): 4 µM; Minimum inhibitory concentration (Xanthomonas campestris; triplicate 3): 4 µM; Minimum inhibitory concentration (Cryptococcus neoformans; CLSI M27-A3, triplicate 1): 8 µM; Minimum inhibitory concentration, Average (Cryptococcus neoformans): 8.0 µM; Minimum inhibitory concentration (Cryptococcus neoformans; triplicate 2): 8 µM; Minimum inhibitory concentration (Cryptococcus neoformans; triplicate 3): 8 µM; Minimum inhibitory concentration (Escherichia coli; CLSI M7-A10, triplicate 1): 2 µM; Minimum inhibitory concentration, Average (Escherichia coli): 2.0 µM; Minimum inhibitory concentration (Escherichia coli; triplicate 2): 2 µM; Minimum inhibitory concentration (Escherichia coli; triplicate 3): 2 µM |
| GSLHGFMYKYLKNMVLNLF [Tc06] | 4 | 4.0 | 4 | 4 | 128 | 128.0 | 128 | 128 | 16 | 16.0 | 16 | 16 | 16 | 16.0 | 16 | 16 | 64 | 64.0 | 64 | 64 | Minimum inhibitory concentration (Pseudomonas aeruginosa; CLSI M7-A10, triplicate 1): 16 µM; Minimum inhibitory concentration, Average (Pseudomonas aeruginosa): 26.7 µM; Minimum inhibitory concentration (Pseudomonas aeruginosa; triplicate 2): 32 µM; Minimum inhibitory concentration (Pseudomonas aeruginosa; triplicate 3): 32 µM; Minimum inhibitory concentration (Staphylococcus aureus; CLSI M7-A10, triplicate 1): 8 µM; Minimum inhibitory concentration, Average (Staphylococcus aureus): 13.3 µM; Minimum inhibitory concentration (Staphylococcus aureus; triplicate 2): 16 µM; Minimum inhibitory concentration (Staphylococcus aureus; triplicate 3): 16 µM; Minimum inhibitory concentration (Xanthomonas campestris; CLSI M7-A10, triplicate 1): 64 µM; Minimum inhibitory concentration, Average (Xanthomonas campestris): 64.0 µM; Minimum inhibitory concentration (Xanthomonas campestris; triplicate 2): 64 µM; Minimum inhibitory concentration (Xanthomonas campestris; triplicate 3): 64 µM; Minimum inhibitory concentration (Cryptococcus neoformans; CLSI M27-A3, triplicate 1): 8 µM; Minimum inhibitory concentration, Average (Cryptococcus neoformans): 10.7 µM; Minimum inhibitory concentration (Cryptococcus neoformans; triplicate 2): 8 µM; Minimum inhibitory concentration (Cryptococcus neoformans; triplicate 3): 16 µM; Minimum inhibitory concentration (Escherichia coli; CLSI M7-A10, triplicate 1): 32 µM; Minimum inhibitory concentration, Average (Escherichia coli): 32.0 µM; Minimum inhibitory concentration (Escherichia coli; triplicate 2): 32 µM; Minimum inhibitory concentration (Escherichia coli; triplicate 3): 32 µM |
| ANRLLEAYKMLLKFLGNLR [Gr02] | 4 | 4.0 | 4 | 4 | 1 | 1.0 | 1 | 1 | 2 | 2.0 | 2 | 2 | 1 | 1.0 | 1 | 1 | 4 | 4.0 | 4 | 4 | Minimum inhibitory concentration (Pseudomonas aeruginosa; CLSI M7-A10, triplicate 1): 32 µM; Minimum inhibitory concentration, Average (Pseudomonas aeruginosa): 32.0 µM; Minimum inhibitory concentration (Pseudomonas aeruginosa; triplicate 2): 32 µM; Minimum inhibitory concentration (Pseudomonas aeruginosa; triplicate 3): 32 µM; Minimum inhibitory concentration (Staphylococcus aureus; CLSI M7-A10, triplicate 1): 1 µM; Minimum inhibitory concentration, Average (Staphylococcus aureus): 1.0 µM; Minimum inhibitory concentration (Staphylococcus aureus; triplicate 2): 1 µM; Minimum inhibitory concentration (Staphylococcus aureus; triplicate 3): 1 µM; Minimum inhibitory concentration (Xanthomonas campestris; CLSI M7-A10, triplicate 1): 4 µM; Minimum inhibitory concentration, Average (Xanthomonas campestris): 4.0 µM; Minimum inhibitory concentration (Xanthomonas campestris; triplicate 2): 4 µM; Minimum inhibitory concentration (Xanthomonas campestris; triplicate 3): 4 µM; Minimum inhibitory concentration (Cryptococcus neoformans; CLSI M27-A3, triplicate 1): 2 µM; Minimum inhibitory concentration, Average (Cryptococcus neoformans): 2.7 µM; Minimum inhibitory concentration (Cryptococcus neoformans; triplicate 2): 2 µM; Minimum inhibitory concentration (Cryptococcus neoformans; triplicate 3): 4 µM; Minimum inhibitory concentration (Escherichia coli; CLSI M7-A10, triplicate 1): 4 µM; Minimum inhibitory concentration, Average (Escherichia coli): 4.0 µM; Minimum inhibitory concentration (Escherichia coli; triplicate 2): 4 µM; Minimum inhibitory concentration (Escherichia coli; triplicate 3): 4 µM |
